In article PMC5392761, “Discovery of Antimalarial Azetidine-2-carbonitriles That Inhibit P. falciparum Dihydroorotate Dehydrogenase” (ACS Medicinal Chemistry Letters, 2017):

Assay: Mouse pharmacokinetics assay (IV and PO)
Format: in vivo, CD-1 mice
Details: mice

- bioavailability (female, CD-1, mouse, in vivo, PO 5 mg/kg, IV 1 mg/kg, read-out: F, bioavailability): 94%
- C0, initial serum concentration at t = 0 (IV 1 mg/kg): 4.9 µM
- Vss, volume of distribution at steady state (IV 1 mg/kg): 0.37 L/kg
- Cmax (PO 5 mg/kg, read-out: Cmax, peak serum concentration): 16.9 µM
- DNAUC0-inf, dose-normalized area under the plasma concentration vs time curve (following PO dosing 5 mg/kg): >54.3 µM·h
SMILES: CCCNC(=O)N1[C@H](C#N)[C@H](c2ccc(-c3ccc(C(F)(F)F)c(C(F)(F)F)c3)cc2)[C@H]1CO [Compound 27]
